Test results: patent publication US6936585B2, “Corticotropin releasing factor 2 receptor agonists” (priority 2002, dated 2005)
Like-named read-outs stand apart in the source and are kept apart here. Ends that are not written are not given here. Peptide text beside a SMILES is read from it.

Columns and labels:
[1] = target: T1, CRF2R (Homo sapiens, UniProt Q13324); assay: CRF2R agonist activation (EC50 / Emax), called comparative CRF binding; type: cell-based
T1 sequence (Q13324 1-411): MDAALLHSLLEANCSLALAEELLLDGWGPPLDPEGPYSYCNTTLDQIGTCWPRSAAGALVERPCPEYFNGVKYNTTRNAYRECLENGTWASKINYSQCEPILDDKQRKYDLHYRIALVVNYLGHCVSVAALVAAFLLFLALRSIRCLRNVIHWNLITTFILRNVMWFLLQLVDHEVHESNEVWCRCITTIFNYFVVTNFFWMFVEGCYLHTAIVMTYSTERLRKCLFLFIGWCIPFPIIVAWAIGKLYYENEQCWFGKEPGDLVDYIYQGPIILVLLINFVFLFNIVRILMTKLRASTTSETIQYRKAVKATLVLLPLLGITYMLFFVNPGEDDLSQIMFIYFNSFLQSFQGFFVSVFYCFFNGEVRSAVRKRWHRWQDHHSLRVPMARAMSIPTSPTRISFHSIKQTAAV
Outline: (§1)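 Read-out is Gαs-driven cAMP induction, quantified directly in lysates or through CRE-reporter gene expression, after treating CRF1R- or CRF2R-expressing cells with peptide. Vehicle-treated cells serve as the comparison.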

[2] = target: T2, CRF1R (Homo sapiens, UniProt P34998); assay: CRF1R agonist activation (EC50 / Emax), called comparative CRF binding; type: cell-based
T2 sequence (P34998 24-415): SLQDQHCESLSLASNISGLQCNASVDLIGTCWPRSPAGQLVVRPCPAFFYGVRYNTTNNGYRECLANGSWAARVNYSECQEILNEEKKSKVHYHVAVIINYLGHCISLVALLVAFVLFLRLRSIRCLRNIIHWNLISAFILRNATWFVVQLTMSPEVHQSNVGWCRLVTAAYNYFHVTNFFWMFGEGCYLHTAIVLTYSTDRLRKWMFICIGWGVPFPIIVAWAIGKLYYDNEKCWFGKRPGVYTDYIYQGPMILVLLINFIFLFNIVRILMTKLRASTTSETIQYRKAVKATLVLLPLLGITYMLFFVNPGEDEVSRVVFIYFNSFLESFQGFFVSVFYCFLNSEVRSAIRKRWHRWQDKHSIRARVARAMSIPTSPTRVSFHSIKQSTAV
Outline: as §1

Compound | Emax ([1]; read-out: CRF2R Emax) [%] | Emax ([2]; read-out: CRF1R Emax) [%] | other results
CC[C@H](C)[C@H](NC(=O)[C@H](CCCNC(=N)N)NC(=O)[C@H](C)NC(=O)[C@H](CC(N)=O)NC(=O)[C@H](CCC(N)=O)NC(=O)[C@H](CCC(=O)O)NC(=O)[C@H](C)NC(=O)[C@H](CCCNC(=N)N)NC(=O)[C@H](CCC(=O)O)NC(=O)[C@H](CCCNC(=N)N)NC(=O)[C@H](CCC(N)=O)NC(=O)[C@H](CO)NC(=O)[C@H](CCC(N)=O)NC(=O)[C@@H](NC(=O)[C@H](CCCNC(=N)N)NC(=O)[C@H](C)NC(=O)[C@H](CC(C)C)NC(=O)[C@H](CCC(=O)O)NC(=O)[C@H](CC(C)C)NC(=O)[C@H](CC(C)C)NC(=O)[C@@H](NC(=O)[C@H](CCCNC(=N)N)NC(=O)[C@H](CC(C)C)NC(=O)[C@H](CC(C)C)NC(=O)[C@H](CC(C)C)NC(=O)[C@H](CC(C)C)NC(=O)[C@@H]1CCCN1C(=O)[C@H](CC(C)C)NC(=O)[C@H](CC(=O)O)NC(=O)[C@@H](NC(=O)[C@H](CO)NC(=O)[C@H](CC(C)C)NC(=O)[C@H](CO)NC(=O)[C@@H]1CCCN1C(=O)[C@H](CC(N)=O)NC(=O)[C@@H](N)CC(=O)O)[C@@H](C)CC)[C@@H](C)O)[C@@H](C)O)C(=O)N[C@@H](Cc1ccccc1)C(=O)N[C@@H](C)C(=O)N[C@@H](CCCNC(=N)N)C(=O)N[C@H](C(N)=O)C(C)C [compound 340] (H-DNPSLSIDLPLLLLRTLLELARTQSQRERAEQNARIFARV-NH2; N-terminus assumed) | 100 | 96 | 
CC[C@H](C)[C@H](N)C(=O)N[C@H](C(=O)N[C@@H](CC(C)C)C(=O)N[C@@H](CO)C(=O)N[C@@H](CC(C)C)C(=O)N[C@@H](CC(=O)O)C(=O)N[C@H](C(=O)N1CCC[C@H]1C(=O)N[C@H](C(=O)NCC(=O)N[C@@H](CC(C)C)C(=O)N[C@@H](CC(C)C)C(=O)N[C@@H](CCC(N)=O)C(=O)N[C@H](C(=O)N[C@@H](CC(C)C)C(=O)N[C@@H](CC(C)C)C(=O)N[C@@H](CCC(=O)O)C(=O)N[C@@H](CCSC)C(=O)N[C@@H](C)C(=O)N[C@@H](CCCNC(=N)N)C(=O)N[C@@H](C)C(=O)N[C@@H](CCC(=O)O)C(=O)N[C@@H](CCC(N)=O)C(=O)N[C@@H](CC(C)C)C(=O)N[C@@H](C)C(=O)N[C@@H](CCC(N)=O)C(=O)N[C@@H](CCC(N)=O)C(=O)N[C@@H](C)C(=O)N[C@@H](Cc1c[nH]cn1)C(=O)N[C@@H](CO)C(=O)N[C@@H](CC(N)=O)C(=O)N[C@@H](CCCNC(=N)N)C(=O)N[C@@H](CCCCN)C(=O)N[C@@H](CC(C)C)C(=O)N[C@@H](CCSC)C(=O)N[C@@H](CCC(=O)O)C(=O)N[C@H](C(=O)N[C@H](C(N)=O)[C@@H](C)CC)[C@@H](C)CC)[C@@H](C)CC)[C@@H](C)CC)C(C)C)C(C)C [compound 164] (H-IVLSLDVPIGLLQILLEMARAEQLAQQAHSNRKLMEII-NH2; N-terminus assumed) | 92 | 26 | 
SQEPPISLDLPLQLLREVLEMTKADQLAQQAHSNRKLLDIA-NH2 [compound 95] | 8.25 | 5.55 | 
SEEPPISLDLTFHLLREVLEMARAEQLAQQAHTNARILARV-NH2 [compound 161] | 88 | 77 | 
NDDPPISIDLPLLLLRNMIEMARIENEREQAGLNAKYLAEV-NH2 [compound 268] | 59 | 14.2 | 
CC[C@H](C)[C@H](NC(=O)[C@H](CC(=O)O)NC(=O)[C@H](CC(C)C)NC(=O)[C@H](CC(C)C)NC(=O)[C@H](CCCCN)NC(=O)[C@H](CCCNC(=N)N)NC(=O)[C@H](CC(N)=O)NC(=O)[C@H](CO)NC(=O)[C@H](Cc1c[nH]cn1)NC(=O)[C@H](C)NC(=O)[C@H](CCC(N)=O)NC(=O)[C@H](CCC(N)=O)NC(=O)[C@H](C)NC(=O)[C@H](CC(C)C)NC(=O)[C@H](CCC(N)=O)NC(=O)[C@H](CC(=O)O)NC(=O)[C@H](C)NC(=O)[C@H](CCCCN)NC(=O)[C@@H](NC(=O)[C@H](CCSC)NC(=O)[C@H](CCC(=O)O)NC(=O)[C@H](CC(C)C)NC(=O)[C@@H](NC(=O)[C@H](CCC(=O)O)NC(=O)[C@H](CCCNC(=N)N)NC(=O)[C@H](CC(C)C)NC(=O)[C@H](CC(C)C)NC(=O)[C@H](Cc1c[nH]cn1)NC(=O)[C@H](Cc1ccccc1)NC(=O)[C@@H](NC(=O)[C@H](CC(C)C)NC(=O)[C@H](CC(=O)O)NC(=O)[C@H](CC(C)C)NC(=O)[C@H](CO)NC(=O)[C@@H](NC(=O)[C@@H]1CCCN1C(=O)[C@@H]1CCCN1C(=O)[C@H](CCC(=O)O)NC(=O)[C@H](CCC(N)=O)NC(=O)[C@@H](N)CO)[C@@H](C)CC)[C@@H](C)O)C(C)C)[C@@H](C)O)C(=O)N[C@@H](C)C(N)=O [oCRF, sheep corticotropin releasing factor, reference compound] |  |  | EC50 [1]: > 100 nM; Emax ([1]; Emax, read-out: CRF2R (Emax %)): 33%; EC50 [2]: 27.4 nM; Emax ([2]; Emax, read-out: CRF1R (Emax %)): 98%
CC[C@H](C)[C@H](N)C(=O)N[C@H](C(=O)N[C@@H](CC(C)C)C(=O)N[C@@H](CO)C(=O)N[C@@H](CC(C)C)C(=O)N[C@@H](CC(=O)O)C(=O)N[C@H](C(=O)N1CCC[C@H]1C(=O)N[C@H](C(=O)NCC(=O)N[C@@H](CC(C)C)C(=O)N[C@@H](CC(C)C)C(=O)N[C@@H](CCC(N)=O)C(=O)N[C@H](C(=O)N[C@@H](CC(C)C)C(=O)N[C@@H](CC(C)C)C(=O)N[C@@H](CCC(=O)O)C(=O)N[C@@H](CCC(N)=O)C(=O)N[C@H](C(=O)N[C@@H](CCCCN)C(=O)N[C@@H](C)C(=O)N[C@@H](CCCNC(=N)N)C(=O)N[C@@H](C)C(=O)N[C@@H](C)C(=O)N[C@@H](CCCNC(=N)N)C(=O)N[C@@H](CCC(=O)O)C(=O)N[C@@H](CCC(N)=O)C(=O)N[C@@H](C)C(=O)N[C@H](C(=O)N[C@H](C(=O)N[C@@H](CC(N)=O)C(=O)N[C@@H](C)C(=O)N[C@@H](CCCNC(=N)N)C(=O)N[C@H](C(=O)N[C@@H](CC(C)C)C(=O)N[C@@H](C)C(=O)N[C@@H](CCCNC(=N)N)C(=O)N[C@H](C(N)=O)C(C)C)[C@@H](C)CC)[C@@H](C)O)[C@@H](C)O)[C@@H](C)O)[C@@H](C)CC)[C@@H](C)CC)C(C)C)C(C)C [compound 117] (H-IVLSLDVPIGLLQILLEQTKARAAREQATTNARILARV-NH2) | 98.8 | 7.8 | 
SQEPPISLDLPIHLLREVLEMTKADQLAQQAHSNRKLLDIA-NH2 [compound 94] | 6.15 | 7.3 | 
CC[C@H](C)[C@H](N)C(=O)N[C@H](C(=O)N[C@@H](CC(C)C)C(=O)N[C@@H](CO)C(=O)N[C@@H](CC(C)C)C(=O)N[C@@H](CC(=O)O)C(=O)N[C@H](C(=O)N1CCC[C@H]1C(=O)N[C@H](C(=O)NCC(=O)N[C@@H](CC(C)C)C(=O)N[C@@H](CC(C)C)C(=O)N[C@@H](CCC(N)=O)C(=O)N[C@H](C(=O)N[C@@H](CC(C)C)C(=O)N[C@@H](CC(C)C)C(=O)N[C@@H](CCC(=O)O)C(=O)N[C@@H](CCC(N)=O)C(=O)N[C@@H](C)C(=O)N[C@@H](CCCNC(=N)N)C(=O)N[C@@H](C)C(=O)N[C@@H](C)C(=O)N[C@@H](C)C(=O)N[C@@H](CCCNC(=N)N)C(=O)N[C@@H](CCC(=O)O)C(=O)N[C@@H](CCC(N)=O)C(=O)N[C@@H](C)C(=O)N[C@H](C(=O)N[C@H](C(=O)N[C@@H](CC(N)=O)C(=O)N[C@@H](C)C(=O)N[C@@H](CCCNC(=N)N)C(=O)N[C@H](C(=O)N[C@@H](CC(C)C)C(=O)N[C@@H](C)C(=O)N[C@@H](CCCNC(=N)N)C(=O)N[C@H](C(N)=O)C(C)C)[C@@H](C)CC)[C@@H](C)O)[C@@H](C)O)[C@@H](C)CC)[C@@H](C)CC)C(C)C)C(C)C [compound 141] (H-IVLSLDVPIGLLQILLEQARAAAREQATTNARILARV-NH2) | 29 | 7 | 
NDDPPISIDLPFLLLRNMIEMARIENEREQAGLNAKYLAEV-NH2 [compound 260] | 89.3 | 89.7 | EC50 ([1]; read-out: CRF2R EC50): ≥ 100 nM; EC50 ([2]; read-out: CRF1R EC50): 834 nM
